Test results from article PMC7592376, “Design and synthesis of multi-target directed 1,2,3-triazole-dimethylaminoacryloyl-chromenone derivatives with potential use in Alzheimer's disease” (BMC Chemistry, 2020).
Several values for one entry are separate records, joined by “and”; a condition that tells them apart may be missing. Identical values can stand only once. Like-named read-outs stand apart in the source and are kept apart here.

Assays:
[1] = system: neuronal cell line; design: method as in PMID 29107423; settings: cited from earlier work
[2] = biological target: T1, AChE (Electrophorus electricus, UniProt O42275); test: biochemical; settings: mean ± SD, three independent experiments; read-out: AChEI IC50
T1 construct: purchased Aldrich
Method: (§1) All enzymes and reagents required for the assay were obtained from Aldrich. […] Each well contained 50 µL potassium phosphate buffer (KH2PO4/ K2HPO4, 0.1 M, pH 8), 25 µL sample solution, and 25 µL enzyme (final concentration 0.22 U/mL in buffer). Control experiments were also performed under the same conditions without enzyme. After incubation at room temperature for 15 min, 125 µL DTNB (3 mM in buffer) was added and the characterization of enzymatic reaction was spectrometrically performed at 405 nm followed by the addition of substrate (ATCI 3 mM in water) after 5–10 min. The IC50 values were determined graphically from inhibition curves (log inhibitor concentration vs. percent of inhibition). Also, the same method was used for the BuChE inhibition assay.

[3] = biological target: T2, BuChE (Homo sapiens, UniProt P06276); test: biochemical; settings: mean ± SD, three independent experiments; read-out: BuChEI IC50
T2 construct: purchased Aldrich
Method: as §1

[4] = biological target: T1, AChE; design: method as in PMID 29421707, PMID 27914694, PMID 25531792; settings: literature compounds of Fig. 1; read-out: AChEI, IC50; cited from earlier work
[5] = biological target: T2, BuChE; design: method as in PMID 29421707, PMID 27914694, PMID 31327094, doi:10.1007/s00044-018-2187-8, PMID 25531792; settings: literature compounds of Fig. 1; read-out: BuChEI, IC50; cited from earlier work
[6] = biological target: AChE-induced Aβ1-40 peptide aggregation (Homo sapiens, UniProt P05067); test: biochemical; settings: read-out: % Inhibition AChE-induced Aβ aggregation
Method: (§2) Inhibition of Aβ1-42 self-aggregation was measured by ThT fluorescence assay. The details of the method were reported in our previous study. To study Aβ42 aggregation inhibition, a reported method, based on the fluorescence emission of ThT was followed. Briefly, the mixtures of Aβ1-40 peptide (Bachem company, Switzerland) and AChE (Sigma, Electrophorus electricus), in the presence or absence of the test inhibitor were incubated for 24 h at room temperature.

[7] = biological target: Aβ1-42 (Homo sapiens, UniProt P05067); test: biochemical; settings: read-out: % Inhibition self-induced Aβ1–42 aggregation
Method: as §2

[8] = biological target: T2, BuChE; test: Kinetic study of BuChE inhibition (Lineweaver-Burk and secondary plot); type: biochemical
Method: The kinetic study was performed to investigate the mechanism of inhibition by compound 10h against BuChE.
The Lineweaver–Burk reciprocal plot was provided by plotting 1/V against 1/[S] at variable concentrations of butyrylthiocholine as the substrate (187.5, 750, 1500, 3000 µM).

[9] = system: PC12 cells; test: Neuroprotection against Aβ25-35-induced damage, MTT assay; type: cell-based; settings: up to 50 μM, Aβ25-35 5 μM
Method: Compound 10h was selected to study the neuroprotective ability using PC12 cell injury induced by Aβ25–35 by MTT assay.
MTT reduction assay was used to evaluate the neuroprotective effect of compound 10h on neuronal PC12 cell damage induced by Aβ25-35. The cells were grown in monolayer culture on collagen-coated plates at 37 °C in a humidified atmosphere of 5% CO2. Neuronal PC12 cells were plated at a density of 5 × 10^5 cells/well on 96-well plates. The cells were pre-incubated with compound 10h for 3 h before human Aβ 25–35 (final concentration of 5 μM) was added. After 24 h, 90 μL the medium was taken out and 20 μL of MTT (0.5 mg/ml dissolved in RPMI containing phenol red) was added and incubated for an additional 2 h at 37 °C. The absorbance (A570 nm) was measured using a Bio-Rad microplate reader (Model 680, Bio-Rad). The details were reported in our previous work.

[10] = Metal chelation studies by UV spectra and molar ratio method; type: physicochemical
Method: The stoichiometry of complex 10h-Cu^2+ was also studied (Fig. 4) due to important role of copper ions in AD [38]. The concentration of the test compound 10h was 20 μM and the final concentration of Cu^2+ ranged from 0–44 μM with 4 μM intervals at 303.5 nm.
The plot was obtained by the corresponding absorption against the mole fraction of Cu^2+ to ligand 10h. According to the plot, the ratio 1:1 complexation ration of 10h-Cu^2+ can be seen at the fracture point of the plot with the mole fraction of […].
To study the metal chelating ability, the solutions of compound 10h and Fe^2+, Cu^2+, and Zn^2+ ions (from FeSO4, CuCl2.2H2O, and ZnCl2) were prepared in methanol. The mixture of compound 10h (1 mL) and the test ion solutions (1 mL) with the same final concentration of 20 µM in a 1 cm quartz cuvette was incubated at room temperature for 30 min. Then, the absorption spectra were recorded in the range of 200–600 nm.
The stoichiometry of complex 10h-Cu^2+ was also studied using the molar ratio method. The concentration of compound 10h was 20 μM and the final concentration of Cu^2+ ranged from 0–44 μM with 4 μM intervals at 303.5 nm. The plot was obtained by the corresponding absorption versus mole fraction of Cu^2+ to ligand 10h. All experiments were performed in triplicate.

[11] = system: Aβ; design: method as in PMID 29407958, PMID 29763808, PMID 32131034; settings: at 100 μM; cited from earlier work
[12] = system: Aβ; design: method as in PMID 29407958, PMID 29763808, PMID 32131034; settings: at 25 μM; cited from earlier work

T1 sequence (O42275 24-633): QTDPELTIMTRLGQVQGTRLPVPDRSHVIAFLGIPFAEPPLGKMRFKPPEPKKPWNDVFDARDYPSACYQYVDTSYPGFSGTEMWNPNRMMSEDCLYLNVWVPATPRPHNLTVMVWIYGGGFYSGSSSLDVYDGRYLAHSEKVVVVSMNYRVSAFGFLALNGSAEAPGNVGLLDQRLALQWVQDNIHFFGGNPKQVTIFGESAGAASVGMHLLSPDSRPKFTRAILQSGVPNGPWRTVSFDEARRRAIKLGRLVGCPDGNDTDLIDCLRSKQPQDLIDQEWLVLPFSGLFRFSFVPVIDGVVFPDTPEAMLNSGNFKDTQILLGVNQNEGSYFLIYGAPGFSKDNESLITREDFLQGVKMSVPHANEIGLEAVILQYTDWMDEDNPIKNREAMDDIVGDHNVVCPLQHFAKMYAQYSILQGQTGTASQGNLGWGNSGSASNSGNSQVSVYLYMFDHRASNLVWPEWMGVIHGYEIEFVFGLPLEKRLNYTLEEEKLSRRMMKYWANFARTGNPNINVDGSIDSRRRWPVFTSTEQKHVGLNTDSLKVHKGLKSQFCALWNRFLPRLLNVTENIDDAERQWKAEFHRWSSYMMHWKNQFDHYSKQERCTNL
T2 sequence (P06276 29-602): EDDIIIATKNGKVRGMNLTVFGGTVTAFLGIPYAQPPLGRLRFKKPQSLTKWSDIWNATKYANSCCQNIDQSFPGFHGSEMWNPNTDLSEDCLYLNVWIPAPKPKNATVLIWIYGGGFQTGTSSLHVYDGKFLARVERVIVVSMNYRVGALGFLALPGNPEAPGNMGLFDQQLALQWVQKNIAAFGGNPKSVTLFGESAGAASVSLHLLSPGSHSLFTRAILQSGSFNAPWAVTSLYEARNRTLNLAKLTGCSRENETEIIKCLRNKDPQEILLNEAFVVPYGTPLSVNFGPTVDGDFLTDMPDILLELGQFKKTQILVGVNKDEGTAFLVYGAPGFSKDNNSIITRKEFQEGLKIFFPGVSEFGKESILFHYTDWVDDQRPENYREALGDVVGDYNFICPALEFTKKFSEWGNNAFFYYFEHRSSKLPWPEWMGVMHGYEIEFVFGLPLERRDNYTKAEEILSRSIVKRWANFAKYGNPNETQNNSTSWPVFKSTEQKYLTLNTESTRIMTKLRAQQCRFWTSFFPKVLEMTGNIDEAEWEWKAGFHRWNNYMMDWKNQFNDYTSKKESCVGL
Chain of Aβ1-42 (P05067 672-713 limits assumed): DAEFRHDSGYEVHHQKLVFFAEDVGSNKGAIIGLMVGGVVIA
Chain of AChE-induced Aβ1-40 peptide aggregation (P05067 672-711): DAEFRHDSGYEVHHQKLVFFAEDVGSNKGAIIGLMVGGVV

SMILES	IC50 [2] [µM]	IC50 [3] [µM]	also measured
N=c1oc2ccccc2cc1C(=O)Nc1cc(Br)ccc1NCc1cn(CCC2C(=O)c3ccccc3C2=O)nn1 [compound G]			IC50 [1]: 7.9 µM
CN(C)/C=C/C(=O)c1cc2ccc(OCc3cn(Cc4ccc(Br)cc4)nn3)cc2oc1=O [Compound 10m, (E)-7-((1-(4-Bromobenzyl)-1H-1,2,3-triazol-4-yl)methoxy)-3-(3-(dimethylamino)acryloyl)-2H-chromen-2-one]	> 100	> 100	
Cc1ccc(Cn2cc(COc3ccc4cc(C(=O)/C=C/N(C)C)c(=O)oc4c3)nn2)cc1 [Compound 10c, (E)-3-(3-(Dimethylamino)acryloyl)-7-((1-(4-methylbenzyl)-1H-1,2,3-triazol-4-yl)methoxy)-2H-chromen-2-one]	> 100	> 100	
CN(C)/C=C/C(=O)c1cc2ccc(OCc3cn(Cc4ccccc4Br)nn3)cc2oc1=O [Compound 10k, (E)-7-((1-(2-Bromobenzyl)-1H-1,2,3-triazol-4-yl)methoxy)-3-(3-(dimethylamino)acryloyl)-2H-chromen-2-one]	> 100	> 100	
CN(C)/C=C/C(=O)c1cc2ccc(OCc3cn(Cc4ccc(Cl)cc4)nn3)cc2oc1=O [Compound 10j, (E)-7-((1-(4-Chlorobenzyl)-1H-1,2,3-triazol-4-yl)methoxy)-3-(3-(dimethylamino)acryloyl)-2H-chromen-2-one]	> 100	> 100	
COc1ccc(Cn2cc(COc3ccc4ccc(=O)oc4c3)nn2)cc1 [compound B]			IC50 [4]: 3.4 µM; IC50 [5]: 1.1 µM
O=C(NCc1cc[n+](Cc2cccc(F)c2)cc1)c1cc2ccccc2oc1=O [compound A]			IC50 [5]: 12.2 µM
Cc1ccccc1Cn1cc(COc2ccc3cc(C(=O)/C=C/N(C)C)c(=O)oc3c2)nn1 [Compound 10b, (E)-3-(3-(Dimethylamino)acryloyl)-7-((1-(2-methylbenzyl)-1H-1,2,3-triazol-4-yl)methoxy)-2H-chromen-2-one]	> 100	35.73 ± 0.21	
CN(C)/C=C/C(=O)c1cc2ccc(OCc3cn(Cc4ccccc4)nn3)cc2oc1=O [Compound 10a, (E)-7-((1-Benzyl-1H-1,2,3-triazol-4-yl)methoxy)-3-(3-(dimethylamino)acryloyl)-2H-chromen-2-one]	> 100	34.41 ± 0.23	
Nc1c2c(nc3ccccc13)CCCC2 [Tacrine, reference compound]			inhibition at 100 µM [6]: 6.7 ± 0.9%; inhibition at 10 µM [7]: 7.6 ± 1.4%
CN(C)/C=C/C(=O)c1cc2ccc(OCc3cn(Cc4ccc(F)c(F)c4)nn3)cc2oc1=O [Compound 10h, (E)-7-((1-(3,4-Difluorobenzyl)-1H-1,2,3-triazol-4-yl)methoxy)-3-(3-(dimethylamino)acryloyl)-2H-chromen-2-one]	> 100	21.7 ± 0.57	inhibition pattern (Lineweaver-Burk plot) ([8]; BuChE, inhibitor 0, 10.7, 42.9, 85.8 µM): mixed-type inhibition; Ki ([8]; from secondary plot of slopes vs inhibitor concentration, substrate butyrylthiocholine): 38.3 µM; inhibition at 100 µM [6]: 29.4 ± 1.5%; inhibition at 10 µM [7]: 32.6 ± 2%; neuroprotective effect on Aβ-induced PC12 cell injury [9]: no neuroprotective effect; metal chelating ability (in words) ([10]; Fe2+, Cu2+, Zn2+): able to chelate biometals; UV absorption peaks after interaction with Cu2+ ([10]; methanol, 20 µM each, 30 min): 303.5 nm and 382.4 nm; UV absorption peaks after interaction with Fe2+ ([10]; methanol, 20 µM each, 30 min): 303.5 nm and 390.9 nm; UV absorption peaks after interaction with Zn2+ ([10]; methanol, 20 µM each, 30 min): 299.2 nm and 388.7 nm; UV absorption peaks of compound alone ([10]; methanolic solution 20 µM): 309.9 nm and 386.7 nm
CN(C)CCC(=O)c1ccc(-c2ccc(C(=O)CCN(C)C)cc2)cc1 [compound D]			IC50 [4]: 19.9 µM; IC50 [5]: 0.32 µM
COc1cccc(Cn2cc(COc3ccc4cc(C(=O)/C=C/N(C)C)c(=O)oc4c3)nn2)c1 [Compound 10d, (E)-3-(3-(Dimethylamino)acryloyl)-7-((1-(3-methoxybenzyl)-1H-1,2,3-triazol-4-yl)methoxy)-2H-chromen-2-one]	> 100	23.44 ± 0.07	
CN(C)/C=C/C(=O)c1cc2ccc(OCc3cn(Cc4cccc(F)c4)nn3)cc2oc1=O [Compound 10f, (E)-3-(3-(Dimethylamino)acryloyl)-7-((1-(3-fluorobenzyl)-1H-1,2,3-triazol-4-yl)methoxy)-2H-chromen-2-one]	> 100	59.58 ± 0.05	
Clc1ccc(Cn2cc(CSc3nnc(-c4ccccc4)c(-c4ccccc4)n3)nn2)cc1 [compound C]			IC50 [5]: 6.41 µM
CN(C)/C=C/C(=O)c1cc2ccc(OCc3cn(Cc4ccc(F)cc4)nn3)cc2oc1=O [Compound 10g, (E)-3-(3-(Dimethylamino)acryloyl)-7-((1-(4-fluorobenzyl)-1H-1,2,3-triazol-4-yl)methoxy)-2H-chromen-2-one]	> 100	> 100	
COc1ccc(-c2cc3ccc(OCCCn4cc(CNC(=O)CCCCC5CCSS5)nn4)cc3oc2=O)cc1OC (centres unmarked) [compound F]			Aß self aggregation inhibition [11]: 51.2%
CN(C)/C=C/C(=O)c1cc2ccc(OCc3cn(Cc4ccccc4Cl)nn3)cc2oc1=O [Compound 10i, (E)-7-((1-(2-Chlorobenzyl)-1H-1,2,3-triazol-4-yl)methoxy)-3-(3-(dimethylamino)acryloyl)-2H-chromen-2-one]	> 100	> 100	
CN(C)/C=C/C(=O)c1cc2ccc(OCc3cn(Cc4ccccc4F)nn3)cc2oc1=O [Compound 10e, (E)-3-(3-(Dimethylamino)acryloyl)-7-((1-(2-fluorobenzyl)-1H-1,2,3-triazol-4-yl)methoxy)-2H-chromen-2-one]	> 100	> 100	
Cc1cc(=O)oc2cc(OCCCCSC(=S)N3CCCCC3)ccc12 [compound E]			Aß aggregation inhibition [12]: 40.19%
CN(C)/C=C/C(=O)c1cc2ccc(OCc3cn(Cc4cccc(Br)c4)nn3)cc2oc1=O [Compound 10l, (E)-7-((1-(3-Bromobenzyl)-1H-1,2,3-triazol-4-yl)methoxy)-3-(3-(dimethylamino)acryloyl)-2H-chromen-2-one]	> 100	65.96 ± 0.004	
